From patent US8753841B2, “Enzyme that catalyzes a peptide-forming reaction from a carboxy component and an amine component, microbe producing the same, and a method of producing a dipeptide using the enzyme or microbe” (Ajinomoto Co., Inc., priority 2002, dated 2014)
Blank lines part the entries; values can stand above or below the molecule they belong to. Residues, ends and D or L forms follow the SMILES beside them.

How the values were obtained:
[1] = tested on: Empedobacter brevis strain FERM BP-8113 microbial cells; test: Production of peptide using microbial cells of Empedobacter brevis; format: cell-based; conditions: 1 mL 100 g/L cell suspension + 1 mL buffer with 200 mM carboxy component, 400 mM amino acid, 10 mM EDTA, pH 9.0, 18° C., 2 hours
Method: A 50 mL medium (pH 6.2) containing 5 grams (g) of glucose, 5 g of ammonium sulfate, 1 g of monopotassium phosphate, 3 g of dipotassium phosphate, 0.5 g of magnesium sulfate, 10 g of yeast extract and 10 g of peptone in 1 liter (L) was transferred to a 500 mL Sakaguchi flask and sterilized at 115° C. for 15 minutes.
Microbial cells were collected by centrifuging (10,000 rounds per minute (rpm), 15 minutes) the culture broth obtained in Example 1, followed by suspending them to a concentration of 100 g/L in 100 mM borate buffer (pH 9.0) containing 10 mM EDTA. After respectively adding 1 mL of the suspension to 1 mL each of 100 mM borate buffer solutions (pH 9.0) containing 10 mM EDTA, 200 mM of the following carboxy components, and 400 mM of the following amino acids to make a final volume of 2 mL, the reaction was carried out at 18° C. for 2 hours.

[2] = tested on: peptide-forming enzyme from Empedobacter brevis strain FERM BP-8113; test: Substrate specificity of enzyme (peptide production from carboxy and amine components); format: biochemical; conditions: L-amino acid methyl ester hydrochloride 100 mM, 150 mM L-glutamine, pH 9.0, 25° C., 3 hours
Excerpt: Ester specificity was examined in the case of using L-amino acid ester for the carboxy component. […] HCl represents hydrochloride in Table 4.
Peptide production was examined in the case of using L-alanine methyl ester for the carboxy component and using various L-amino acids for the amine component.
Peptide production was examined in the case of using various types of L-amino acid methyl esters for the carboxy component and using L-glutamine for the amine component. […] Furthermore, Tween-80 was added to the reaction system to a final concentration of 0.1% in the case of using L-Trp-OMe and L-Tyr-OMe.

[3] = tested on: Sphingobacterium sp. strain FERM BP-8124 microbial cells; test: Production of L-alanyl-L-glutamine using microbial cells of Sphingobacterium sp.; format: cell-based; conditions: 0.1 mL 100 g/L cell suspension + 0.1 mL buffer with 200 mM L-alanine methyl ester hydrochloride, 400 mM L-glutamine, pH 9.0, 25° C., 120 minutes
Method: (§1) 22, 2002). […] 1 ml of this culture broth was then added to the aforementioned medium (50 ml/500 mL Sakaguchi flask) and cultured at 30° C. for 18 hours. Following completion of the culturing, the microbial cells were separated from the culture broth by centrifugation and suspended in 0.1 M borate buffer (pH 9.0) containing 10 mM EDTA at a concentration of 100 g/L as wet microbial cells. […] The resulting 0.2 mL of mixture was allowed to react at 25° C. for 120 minutes. The concentration of L-alanyl-L-glutamine formed at this time was 62 mM.
as §1, with “After” for “Following”, “culture,” for “culturing,”, “minutes.” for “minutes. The concentration of L-alanyl-L-glutamine formed at this time was 62 mM.”

[4] = tested on: peptide-forming enzyme from Sphingobacterium sp. strain FERM BP-8124; test: Production of L-alanyl-L-glutamine using SP-Sepharose HP enzyme fraction of Sphingobacterium sp.; format: biochemical; conditions: 10 μl SP-Sepharose HP fraction + 90 μl buffer with 111 mM L-alanine methyl ester hydrochloride, 222 mM L-glutamine, pH 9.0, 25° C., 120 minutes
Method: As a result, 73 mM of L-alanyl-L-glutamine was formed in the enzyme-added lot.

[5] = tested on: enzyme derived from Sphingobacterium sp. strain FERM BP-8124; test: Substrate specificity of enzyme derived from Sphingobacterium sp.; format: biochemical; conditions: Table 15-4; carboxy component 100 mM, amine component 150 mM, 0.33 units enzyme, pH 9.0, 25° C., 1.5 hours
[6] = tested on: peptide-forming enzyme from Empedobacter brevis strain FERM BP-8113; test: Substrate specificity of enzyme (peptide production from carboxy and amine components); format: biochemical; conditions: L-amino acid amide hydrochloride 100 mM as carboxy component, L-amino acid 150 mM, pH 9.0, 25° C., 3 hours
[7] = tested on: peptide-forming enzyme from Empedobacter brevis strain FERM BP-8113; test: Production of L-alanyl-L-glutamine from L-alanine methyl ester and L-glutamine with the Mono S fraction enzyme; conditions: L-alanine methyl ester hydrochloride 100 mM, 18° C., 2 hours
[8] = Comparison of ability to catalyze peptide formation with known enzymes; format: biochemical; conditions: enzyme of present invention = 100.0
Excerpt: The peptide-forming ability of the present enzyme was compared with that of known enzymes. Carboxypeptidase Y described in EP 278787A1 and the thiol endopeptidases (ficin, papain, bromelain, and chymopapain) described in EP 359399B1 were used as the known enzymes, and they were used in the form of purified enzymes (manufactured by Sigma). The enzyme uniformly purified in Example 3 was used as a source of the present enzyme of the present invention. […] As has been described above, the present enzyme was verified to have an extremely high peptide production rate unlike any known enzyme in the prior art. Furthermore, the enzyme of the present invention is a dimer having a molecular weight of about 75,000. In contrast, the molecular weight of the carboxypeptidase Y has been reported to be about 61,000, while the molecular weight of thiol endopeptidase has been reported to be about 23,000 to 36,000. Thus, the L-alanyl-L-glutamine production rate of the enzyme of the present invention as compared to those of the carboxypeptidase Y and the thiol endopeptidase is even greater when the rate is expressed per molecular weight than when it is expressed per unit weight as indicated in the examples.

- Formed peptide [2]: 74.6 mM
- L-alanyl-L-glutamine formed [4]: 73 mM
- Produced peptide [5]: 0.3 mM
- Formed peptide [6]: 7.6 mM
- L-Ala-L-Gln ([7]; L-glutamine 100 mM): 68.2 mM
- L-Ala-L-Gln ([7]; L-glutamine 110 mM): 72.1 mM
- L-Ala-L-Gln ([7]; L-glutamine 120 mM): 73.3 mM
- L-Ala-L-Gln ([7]; L-glutamine 130 mM): 75.1 mM
- L-Ala-L-Gln ([7]; L-glutamine 150 mM): 75.5 mM
- L-Ala-L-Gln ([7]; L-glutamine 200 mM): 82.0 mM
Molecule: C[C@H](N)C(=O)N[C@@H](CCC(N)=O)C(=O)O [L-Ala-L-Gln, L-alanyl-L-glutamine] (H-Ala-Gln-OH)
- Formed peptide [1]: 68.0 mM
- concentration of L-alanyl-L-glutamine formed [3]: 62 mM

- Ratio of L-Ala-L-Gln production rate per enzyme unit weight [8]: 0.0191
B1: Carboxypeptidase Y: known enzyme described in EP 278787A1, purified enzyme manufactured by Sigma (protein, UniProt P00729 112-532, looked up)
Carboxypeptidase Y: KIKDPKILGIDPNVTQYTGYLDVEDEDKHFFFWTFESRNDPAKDPVILWLNGGPGCSSLTGLFFELGPSSIGPDLKPIGNPYSWNSNATVIFLDQPVNVGFSYSGSSGVSNTVAAGKDVYNFLELFFDQFPEYVNKGQDFHIAGESYAGHYIPVFASEILSHKDRNFNLTSVLIGNGLTDPLTQYNYYEPMACGEGGEPSVLPSEECSAMEDSLERCLGLIESCYDSQSVWSCVPATIYCNNAQLAPYQRTGRNVYDIRKDCEGGNLCYPTLQDIDDYLNQDYVKEAVGAEVDHYESCNFDINRNFLFAGDWMKPYHTAVTDLLNQDLPILVYAGDKDFICNWLGNKAWTDVLPWKYDEEFASQKVRNWTASITDEVAGEVKSYKHFTYLRVFNGGHMVPFDVPENALSMVNEWIHGGFSL
